Source: US11440923B2, “Substituted macrocyclic indole derivatives” (Bayer Aktiengesellschaft, priority 2017, dated 2022)
Where a name gives a salt, the structure may show the parent alone. Read-outs that look alike come from different tables or passages of the source.

Key:
Assay type in all cases: cell-based
AMO-1 cells = experiment: Antiproliferation assay AMO-1 (Assay 7); conditions: 72 h, CellTiter-Glo, read-out: Antiproli AMO-1 IC50 median
How it was run: (§1)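 Anti-proliferative effect was measured by CellTiter-Glo ATP luminescence after 72 h compound exposure at 37° C, following overnight plating. IC50s were derived using a parallel time-zero plate and DMSO-treated controls as reference points.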

DMS-114 cells = experiment: Antiproliferation assay DMS-114 (Assay 7); conditions: Homo sapiens; DMS-114 cells, 72 h, CellTiter-Glo; read-out: Antiproli DM-S114 IC50 median
Procedure: (§2) Assessment of the Anti-Proliferative Effect of Compounds in Different Cell Lines
(§3) The impact of compounds on the proliferation of different cell lines was assessed using the CellTiter-Glo® Luminescent Cell Viability reagent from Promega (G7573).
(§4) In parallel, cells were plated in a reference (day 0) plate for time zero determination. Cells were incubated in a humidified incubator at 37° C. overnight.
(§5) Rim wells were excluded. The cells were incubated for 72 h hours in a humidified incubator at 37° C. The day 0 plate was measured by adding 30 μL/well of CTG solution (CellTiter-Glo® Luminescent Cell Viability reagent, Promega G7573) to time zero wells in the reference plate followed by a 10 minutes incubation and luminescence reading at 0.1 ms. using the PHERAstar FS microplate reader (BMG Labtech).
(§6) After 72 h incubation, the treated plates were measured in the same way as the day 0 plate mentioned above. The Bella DRC Master Sheet was used to calculate IC50s, with CI=day 0 values and C0=DMSO control values.

PA-1 cells = experiment: Antiproliferation assay PA-1 (Assay 7); conditions: Homo sapiens, PA-1; 72 h, CellTiter-Glo; read-out: Antiproli PA-1 IC50 median
Procedure: as §2, §3, §4, §5, §6

SNU-389 cells = experiment: Antiproliferation assay SNU-389 (Assay 7); conditions: 72 h, CellTiter-Glo; read-out: Antiproli SNU-389 IC50
Procedure: as §2, §3, §4, §5, §6

HMC-1-8 cells = experiment: Antiproliferation assay HMC-1-8 (Assay 7)
How it was run: as §1

SNU-16 cells = experiment: Antiproliferation assay SNU-16 (Assay 7); conditions: Homo sapiens, SNU-16; 72 h, CellTiter-Glo; read-out: Antiproli SNU-16 IC50 median
Procedure: as §2, §3, §4, §5, §6

SK-MEL-2 cells = experiment: Antiproliferation assay SK-MEL-2 (Assay 7); conditions: Homo sapiens, SK-MEL-2; 72 h, CellTiter-Glo; read-out: Antiproli SK-MEL-2 IC50 median
Procedure: as §2, §3, §4, §5, §6

SUDHL5 cells [1] = experiment: Induction of cytotoxicity in SUDHL5 cells (Assay 6); conditions: 5 h, CellTiter-Glo, read-out: Cytotox SUDHL5 IC50 (median)
How it was run: (§7)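 Following overnight seeding at 37 °C, cells are treated with compound for 5 h, after which CellTiter-Glo reagent is added and luminescence measured following a 15 min room-temperature shake.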

SUDHL5 cells [2] = experiment: Antiproliferation assay SUDHL5 (Assay 7)
How it was run: as §1

SUDHL10 cells [3] = experiment: Induction of caspase-3/7 activity in SUDHL10 cells (Assay 4)
How it was run: (§8)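 Read-out: Caspase-Glo 3/7 luminescence (1 h, 37 °C) after cells, plated overnight, were treated with compounds for 3 h at 37 °C. Signal corrected for cell-free medium background and expressed relative to DMSO control mean.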

SUDHL5 cells [4] = experiment: Induction of caspase-3/7 activity in SUDHL5 cells (Assay 4)
How it was run: as §8

A-431 cells = experiment: Antiproliferation assay A-431 (Assay 7); conditions: Homo sapiens, A-431; 72 h, CellTiter-Glo; read-out: Antiproli A-431 IC50 median
Procedure: as §2, §3, §4, §5, §6

[5] = molecular target: MCL1 protein / biotinylated BIM BH3 peptide in RKO cells (Homo sapiens (Human), UniProt Q07820); experiment: PIxEL: protein-protein interaction in permeabilized cells by ELISA (Assay 5); conditions: PIxEL IC50 (median)
Procedure: PIxEL: Protein-Protein Interaction in Permeabilized Cells by ELISA
Most MCL1 protein molecules are localized at the mitochondria outer membrane and sequester pro-apoptotic proteins through binding of their BCL2 homology domain 3 (BH3 domain). MEB buffer (150 mM mannitol, 10 mM HEPES pH 7.5, 50 mM KCl, 20 μM EDTA, 20 μM EGTA, 5 mM potassium succinate, 0.1% protease-free BSA (SIGMA) with low dose digitonin (0.002%) permeabilizes plasma membrane while leaves live mitochondria, where MCL1 maintains its native localization and conformation. Unlike biophysical assays (e.g. TR-FRET) that use truncated recombinant MCL1 protein, this assay uses full length endogenous MCL1 protein at mitochondria outer membrane. It measures the interaction between MCL1 protein and biotinylated BIM BH3 peptide. Compounds can compete with BIM BH3 peptide to bind to MCL1 protein.
On day 1, RKO colon cancer cell line cells were plated at 0.8 million cells/ml, 100 μl/well in 96-well flat bottom TC plates (Corning). MCL1 antibody (Santa Cruz sc-12756) were diluted at 200 fold (final concentration 1 μg/ml) in carbonate buffer (Thermo Fisher Scientific, pH 9.6), and 50 μl of diluted antibody was added to each well of high bind ELISA plates ([…]). Each plate was tapped to make sure liquid covering entire bottom of wells and incubate at 37° C. overnight.
On the second day, MCL1 antibody was washed from ELISA plate. 250 μl Odyssey® Blocking Buffer (PBS) (Li-Cor) was added to each well, incubated at room temperature for at least 1 hour, then washed once with 250 μl 1×PBST. Plates with RKO cells were gently washed once with 100 μl/well PBS, once with 100 μl/well MEB buffer without digitonin, then 100 μl of MEB buffer with 0.002% digitonin was gently added to each well. Compounds were added with HP Tecan compound dispenser in 3-fold dilution series, highest dose 30 μM, 10-dose per compound in quadruplicates. Biotin-BIM peptide (synthesized by 21st Century) was added with HP Tecan compound dispenser at 0.2 μM immediately after the addition of compounds. Plates were rocked for 1 hour at room temperature. Then MEB buffer was aspirated and 50 μl of CHAPS buffer (50 mM Tris-Cl, pH 7.4, 150 mM NaCl, 1% CHAPS, 1 mM EDTA, 1 mM EGTA, cOmplete protease inhibitors (Roche), PhosSTOP (Roche)) was added to each well. Plates were rocked for 1 hour at 4° C., then 45 μl cell lysate from each well were transferred to ELISA plates coated with MCL1 antibody. Plates were incubated overnight in the cold room with rocking.
On the third day, ELISA plates were washed once with 250 μl 1×PBST. Streptavidin-poly-HRP (Thermo Fisher Scientific) was diluted to 20 ng/ml in Odyssey blocking buffer plus 0.05% Triton-100, and 100 μl was added to each well of the ELISA plate. Plates were incubated at room temperature for 1 hour with rocking, then washed with 100 μl 1×PBST for 3 times. Each SuperSignal ELISA Femto Maximum Sensitivity substrate was added to a 50-ml tube and mixed, then 100 μl of mixed substrate was added to each well. Plates were shaken for 1 minute then luminescence was measured by Envision plate reader […]. Signal of each well were normalized by no-compound control and no-cell control. IC50 was calculated using Graphic Pad PRISM software.

SUDHL10 cells [6] = experiment: Induction of cytotoxicity in SUDHL10 cells (Assay 6); conditions: 5 h, CellTiter-Glo, read-out: Cytotox SUDHL10 IC50 (median)
How it was run: as §7

[7] = 72 h, CellTiter-Glo; read-out: Antiproli HMC-1-8 IC50 median
[8] = 72 h, CellTiter-Glo; read-out: Antiproli SUDHL5 IC50 (median)
[9] = caspase-3/7 induction, 3 h; read-out: Caspase SUDHL10 EC50 (median)
[10] = caspase-3/7 induction, 3 h; read-out: Caspase SUDHL5 EC50 (median)

MCL1 protein / biotinylated BIM BH3 peptide in RKO cells, sequence (Q07820 whole entry): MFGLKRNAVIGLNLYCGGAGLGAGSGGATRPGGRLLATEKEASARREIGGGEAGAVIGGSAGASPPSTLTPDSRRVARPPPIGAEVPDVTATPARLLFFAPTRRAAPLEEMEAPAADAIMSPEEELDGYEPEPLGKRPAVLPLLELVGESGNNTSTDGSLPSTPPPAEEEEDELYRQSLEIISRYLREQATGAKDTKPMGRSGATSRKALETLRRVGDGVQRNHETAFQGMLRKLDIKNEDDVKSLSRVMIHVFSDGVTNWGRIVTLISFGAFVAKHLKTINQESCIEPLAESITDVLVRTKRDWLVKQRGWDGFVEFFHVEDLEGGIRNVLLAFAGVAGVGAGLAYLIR

IC50 (SNU-389 cells) [µM] | IC50 (SNU-16 cells) [µM] | IC50 (SK-MEL-2 cells) [µM] | IC50 (SUDHL5 cells [2]; [8]) [µM] | EC50 (SUDHL10 cells [3]; [9]) [µM] | EC50 (SUDHL5 cells [4]; [10]) [µM] | IC50 (A-431 cells) [µM] | Structure (SMILES) | IC50 (AMO-1 cells) [µM] | IC50 (DMS-114 cells) [µM] | IC50 (PA-1 cells) [µM] | IC50 (HMC-1-8 cells; [7]) [µM] | IC50 (SUDHL5 cells [1]) [µM] | also measured
0.305 | 0.221 | 0.299 | 0.04 | 0.023 | 0.036 | 0.361 | CCc1c2c(nn1C)C(CCN1CCOCC1)N(C)CCCCn1c(C(=O)O)c(CCCOc3cccc4cc(F)ccc34)c3ccc(Cl)c-2c31 (single isomer, unassigned) [Example 94, 4-chloro-3-ethyl-7-{3-[(6-fluoronaphthalen-1-yl)oxy]propyl}-2,14-dimethyl-15-[2-(morpholin-4-yl)ethyl]-10,11,12,13,14,15-hexahydro-2H-pyrazolo[3′,4′:8,9][1,6]diazacycloundecino[10,11,1-hi]indole-8-carboxylic Acid] | 0.0413 | 0.133 | 0.218 | 0.777 | 0.04 | –
0.141 | 1.11 | 0.252 | 0.03 | 0.013 | 0.027 | 0.209 | CCc1c2c(nn1C)C(CCN1CCOCC1)OCC(F)(F)CCn1c(C(=O)O)c(CCCOc3cccc4cc(F)ccc34)c3ccc(Cl)c-2c31 (single isomer, unassigned; (+)) [Example 90, (+)-4-chloro-3-ethyl-12,12-difluoro-7-{3-[(6-fluoronaphthalen-1-yl)oxy]propyl}-2-methyl-15-[2-(morpholin-4-yl)ethyl]-2,10,11,12,13,15-hexahydropyrazolo[4′,3′:9,10][1,6]oxazacycloundecino[8,7,6-hi]indole-8-carboxylic Acid] | 0.0242 | 0.163 | 0.422 | 0.416 | 0.03 | –
– | – | – | – | – | – | – | Cc1c2c(nn1C)C(CCN1CCOCC1)OCCCCn1c(C(=O)O)c(CCCOc3cccc4ccccc34)c3ccc(F)c-2c31 (single isomer, unassigned; enantiomer 1) [Example 8, 4-fluoro-2,3-dimethyl-15-[2-(morpholin-4-yl)ethyl]-7-{3-[(naphthalen-1-yl)oxy]propyl}-2,10,11,12,13,15-hexahydropyrazolo[4′,3′:9,10][1,6]oxazacycloundecino[8,7,6-hi]indole-8-carboxylic Acid—N-ethylethanamine Salt (Enantiomer 1)] | – | – | – | – | 0.076 | IC50 [5]: 0.617 µM; IC50 (SUDHL10 cells [6]): 0.14 µM; IC50 (SUDHL5 cells [2]; read-out: Antiproli SUDHL5 IC50 (median); 72 h, CellTiter-Glo): 0.03 µM; EC50 (SUDHL10 cells [3]; read-out: Caspase SUDHL10 EC50 (median); caspase-3/7 induction, 3 h): 0.15 µM; EC50 (SUDHL5 cells [4]; read-out: Caspase SUDHL5 EC50 (median); caspase-3/7 induction, 3 h): 0.064 µM

Structure (SMILES) | IC50 (SNU-389 cells) [µM] | IC50 (SNU-16 cells) [µM] | IC50 (SK-MEL-2 cells) [µM] | IC50 (SUDHL5 cells [2]; [8]) [µM] | EC50 (SUDHL10 cells [3]; [9]) [µM] | EC50 (SUDHL5 cells [4]; [10]) [µM] | IC50 (A-431 cells) [µM] | IC50 (AMO-1 cells) [µM] | IC50 (DMS-114 cells) [µM] | IC50 (PA-1 cells) [µM] | IC50 (HMC-1-8 cells; [7]) [µM] | IC50 (SUDHL5 cells [1]) [µM] | also measured
CCc1c2c(nn1C)C(CCN1CCC(F)(F)C1)OCCCCn1c(C(=O)O)c(CCCOc3cccc4cc(F)ccc34)c3ccc(Cl)c-2c31 (single isomer, unassigned; enantiomer 1) [Example 58, 4-chloro-15-[2-(3,3-difluoropyrrolidin-1-yl)ethyl]-3-ethyl-7-{3-[(6-fluoronaphthalen-1-yl)oxy]propyl}-2-methyl-2,10,11,12,13,15-hexahydropyrazolo[4′,3′:9,10][1,6]oxazacycloundecino[8,7,6-hi]indole-8-carboxylic Acid (Enantiomer 1)] | 0.223 | 0.135 | 0.728 | – | – | – | 0.486 | – | 0.0811 | 0.11 | – | – | IC50 (AMO-1 cells; Homo sapiens, AMO1, 72 h): 0.0194 µM; IC50 (HMC-1-8 cells; 72 h, CellTiter-Glo, read-out: Antiproli HMC-1-8 IC50 median): 0.328 µM; IC50 (SUDHL10 cells [6]; Homo sapiens, SU-DHL10, 5 h): 0.043 µM; IC50 (SUDHL5 cells [1]; Homo sapiens, SU-DHL-5, 5 h): 0.028 µM; IC50 (SUDHL5 cells [2]; Homo sapiens, SU-DHL-5, 72 h, 72 h, CellTiter-Glo; read-out: Antiproli SUDHL5 IC50 (median)): 0.029 µM; EC50 (SUDHL10 cells [3]; Homo sapiens, SU-DHL10, 3 h, caspase-3/7 induction, 3 h; read-out: Caspase SUDHL10 EC50 (median)): 0.023 µM; EC50 (SUDHL5 cells [4]; Homo sapiens, SU-DHL-5, 3 h, caspase-3/7 induction, 3 h; read-out: Caspase SUDHL5 EC50 (median)): 0.026 µM
